Measurements: publication PMC3466269, “A Comprehensive Strategy to Discover Inhibitors of the Translesion Synthesis DNA Polymerase κ” (PLoS ONE, 2012)

What was measured:
Human pol κ = biological target: T1, Human pol κ (Homo sapiens, UniProt Q9UBT6); assay: Radioactive gel-based primer extension assay on non-damaged DNA, pol κ; type: biochemical; conditions: primer extension, non-damaged DNA, 0.25 nM pol κ; average ± standard error, three experiments; read-out: gel: non-damaged: IC50
T1 construct: Human pol κ (residues 19–526) was purified as previously reported; made in house
T1 sequence (Q9UBT6 19-526): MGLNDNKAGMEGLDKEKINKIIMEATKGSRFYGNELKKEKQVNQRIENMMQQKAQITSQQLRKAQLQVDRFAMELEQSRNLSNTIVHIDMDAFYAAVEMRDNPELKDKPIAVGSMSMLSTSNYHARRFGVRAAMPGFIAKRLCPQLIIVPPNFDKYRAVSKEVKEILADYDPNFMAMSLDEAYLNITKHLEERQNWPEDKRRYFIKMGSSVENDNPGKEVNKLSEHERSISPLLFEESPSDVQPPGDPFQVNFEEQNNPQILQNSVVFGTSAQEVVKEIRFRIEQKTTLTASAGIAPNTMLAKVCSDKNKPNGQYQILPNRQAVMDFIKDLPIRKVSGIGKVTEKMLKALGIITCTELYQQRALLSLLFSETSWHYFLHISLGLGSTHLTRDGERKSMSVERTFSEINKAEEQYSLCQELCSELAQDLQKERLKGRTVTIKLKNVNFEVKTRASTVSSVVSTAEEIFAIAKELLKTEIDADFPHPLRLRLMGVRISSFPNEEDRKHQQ
Experimental: The reactions with pol κ, pol η, and pol ι were carried out in the buffers containing 25 mM Tris-HCl, pH 7.5, 8 mM MgCl2, 10% glycerol, 100 µg/mL bovine serum albumin, and 5 mM DTT. Buffers for pol δ reactions contained 40 mM Hepes-KOH, pH 6.8, 10% glycerol, 200 µg/mL bovine serum albumin, 1 mM DTT, and 8 mM MgCl2. Final concentration of pol κ, pol η, pol ι, or pol δ in the reaction was 0.25 nM, 1 nM, 2.5 nM, or 4 nM, respectively. In this assay, a polymerase was preincubated with the compound for 15 min at room temperature. Primer extensions were then initiated by the addition of DNA substrate at final concentration of 5 nM and carried out for 30 min at room temperature in the presence of 100 µM dCTP and dGTP. The reactions were terminated by the addition of an equal volume of a dye solution containing 95% (v/v) formamide, 10 mM EDTA, 0.03% (w/v) xylene cyanol, and 0.03% (w/v) bromphenol blue. Reaction products were separated through a 15% acrylamide gel containing 8 M urea and visualized with a PhosphorImager screen. The ratio of extended primer to the total amount of primer was measured using ImageQuant 5.2 software to calculate the percentage of primer extended. IC50 values were determined by fitting the data to variable slope four-parameter equations using GraphPad Prism 5.

XP30RO cells (XP-V) = assay: Cell survival assay, CellTiter-Glo Luminescent Cell Viability Assay, with or without UV; type: cell-based, Human; conditions: CellTiter-Glo (ATP content); 24 µM, UV 1.5, 4.5 or 7.5 J/m^2
Text: Supplementary file pone.0045032.s001.tif: Figure S1 Effect of candesartan cilexetil on UV-induced cytotoxicity using CellTiter-Glo Luminescent Cell Viability Assay. […] I: candesartan cilexetil. (TIF) Click here for additional data file.

For CCOc1nc2cccc(C(=O)OC(C)OC(=O)OC3CCCCC3)c2n1Cc1ccc(-c2ccccc2-c2nnn[nH]2)cc1 (centres unmarked) [candesartan cilexetil, Candesartan cilexetil], the IC50 (Human pol κ) was 9.2 ± 0.5 µM and the “Effect on UV-induced cytotoxicity” value (XP30RO cells (XP-V)) was “comparable results were obtained”.
